Experimental data as given in patent US11051515B2, “3-acyl-benzamides and their use as herbicides” (Bayer Aktiengesellschaft, priority 2017, dated 2021).

Key:
DIGSA = test: Pre-emergence action against DIGSA; type: in vivo, Digitaria sanguinalis; details: dosage 320 g/ha, scored visually after 3 weeks vs untreated controls
From the text: Seeds of monocotyledonous and dicotyledonous weed plants and crop plants are laid out in sandy loam soil in wood-fiber pots and covered with soil. The compounds of the invention, formulated in the form of wettable powders (WP) or as emulsion concentrates (EC), are then applied to the surface of the covering soil in the form of an aqueous suspension or emulsion at a water application rate equating to […], with addition of 0.2% wetting agent. After the treatment, the pots are placed in a greenhouse and kept under good growth conditions for the trial plants. The damage to the test plants is scored visually after a test period of 3 weeks by comparison with untreated controls (herbicidal activity in percent (%): 100% activity=the plants have died, 0% activity=like control plants).

ECHCG [1] = test: Pre-emergence action against ECHCG; type: in vivo, Echinochloa crus-galli; details: pre-emergence, dosage 320 g/ha, scored visually after 3 weeks vs untreated controls
In short: (§1)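 Seeds sown in sandy loam in wood-fiber pots and covered with soil. Greenhouse growth; visual damage scored after 3 weeks versus untreated controls (100% = dead, 0% = like control).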

ABUTH [2] = test: Pre-emergence action against ABUTH; type: in vivo, Abutilon theophrasti; details: pre-emergence, dosage 320 g/ha, scored visually after 3 weeks vs untreated controls
In short: as §1

AMARE [3] = test: Pre-emergence action against AMARE; type: in vivo, Amaranthus retroflexus; details: pre-emergence, dosage 320 g/ha, scored visually after 3 weeks vs untreated controls
In short: as §1

MATIN [4] = test: Pre-emergence action against MATIN; type: in vivo, Matricaria inodora; details: Dosage 320 g/ha, pre-emergence
In short: as §1

STEME [5] = test: Pre-emergence action against STEME; type: in vivo, Stellaria media; details: Dosage 320 g/ha, pre-emergence
In short: as §1

VIOTR [6] = test: Pre-emergence action against VIOTR; type: in vivo, Viola tricolor; details: Dosage 320 g/ha, pre-emergence
In short: as §1

VERPE = test: Pre-emergence action against VERPE; type: in vivo, Veronica persica; details: Dosage 320 g/ha, pre-emergence
In short: as §1

AMARE [7] = test: Post-emergence action against AMARE; type: in vivo, Amaranthus retroflexus; details: post-emergence, dosage 80 g/ha, visual assessment about 3 weeks after treatment vs untreated controls
In short: (§2)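 Weeds grown in sandy loam in greenhouse, treated at one-leaf stage (2–3 weeks after sowing) with WP or EC formulations sprayed as aqueous suspension/emulsion at 600 to […] water with 0.2% wetting agent. Visual rating after about 3 weeks versus untreated controls, as % herbicidal action (100% = plants dead, 0% = like control).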

AVEFA [8] = test: Pre-emergence action against AVEFA; type: in vivo, Avena fatua; details: dosage 320 g/ha, scored visually after 3 weeks vs untreated controls
In short: as §1

ABUTH [9] = test: Post-emergence action against ABUTH; type: in vivo, Abutilon theophrasti; details: post-emergence, dosage 80 g/ha, visual assessment about 3 weeks after treatment vs untreated controls
In short: as §2

STEME [10] = test: Post-emergence action against STEME; type: in vivo, Stellaria media; details: post-emergence, dosage 80 g/ha
In short: as §2

AVEFA [11] = test: Post-emergence action against AVEFA; type: in vivo, Avena fatua; details: post-emergence, dosage 80 g/ha, visual assessment about 3 weeks after treatment vs untreated controls
In short: as §2

ECHCG [12] = test: Post-emergence action against ECHCG; type: in vivo, Echinochloa crus-galli; details: post-emergence, dosage 80 g/ha, visual assessment about 3 weeks after treatment vs untreated controls
In short: as §2

PHBPU = test: Post-emergence action against PHBPU; type: in vivo, Pharbitis purpurea; details: post-emergence, dosage 80 g/ha
In short: as §2

VIOTR [13] = test: Post-emergence action against VIOTR; type: in vivo, Viola tricolor; details: post-emergence, dosage 80 g/ha
In short: as §2

MATIN [14] = test: Post-emergence action against MATIN; type: in vivo, Matricaria inodora; details: post-emergence, dosage 80 g/ha, visual assessment about 3 weeks after treatment vs untreated controls
In short: as §2

| SMILES | Pre-emergence action against DIGSA (herbicidal activity) (DIGSA) | Pre-emergence action against ECHCG (herbicidal activity) (ECHCG [1]) | Pre-emergence action against ABUTH (herbicidal activity) (ABUTH [2]) | Pre-emergence action against AMARE (herbicidal activity) (AMARE [3]) | Pre-emergence action against MATIN (MATIN [4]) | Pre-emergence action against STEME (STEME [5]) | Pre-emergence action against VIOTR (VIOTR [6]) | Pre-emergence action against VERPE (VERPE) | Post-emergence action against AMARE (herbicidal action in percent) (AMARE [7]) | Pre-emergence action against AVEFA (herbicidal activity) (AVEFA [8]) | Post-emergence action against ABUTH (herbicidal action in percent) (ABUTH [9]) | Post-emergence action against STEME (STEME [10]) | Post-emergence action against AVEFA (herbicidal action in percent) (AVEFA [11]) | Post-emergence action against ECHCG (herbicidal action in percent) (ECHCG [12]) | Post-emergence action against PHBPU (PHBPU) | Post-emergence action against VIOTR (VIOTR [13]) | Post-emergence action against MATIN (herbicidal action in percent) (MATIN [14]) |
| --- | --- | --- | --- | --- | --- | --- | --- | --- | --- | --- | --- | --- | --- | --- | --- | --- | --- |
| CCn1nnnc1NC(=O)c1ccc(C(F)(F)F)c(C(=O)C2CCCCC2)c1Cl [2-155] | 90% | 80% | 100% | 100% | 100% | 100% | 100% | 80% | 80% |  |  |  |  |  |  |  |  |
| CSc1c(C(=O)Nc2nnnn2C)ccc(C(F)(F)F)c1C(=O)C1CCCCC1 [1-286] | 100% |  | 100% | 100% | 90% | 90% | 100% | 90% | 90% | 90% | 90% | 90 |  |  |  |  |  |
| Cn1nnnc1NC(=O)c1ccc(C(F)(F)F)c(C(=O)c2cc(F)cc(F)c2)c1Cl [1-287] | 80% | 80% | 100% | 100% |  |  | 100% | 100% | 90% |  | 80% |  | 80% | 90% | 90 | 90 |  |
| Cn1nnnc1NC(=O)c1ccc(C(F)(F)F)c(C(=O)C2CCCCC2)c1Cl [1-155] | 90% |  | 100% | 80% | 90% | 90% | 100% |  | 90% |  | 90% | 80 |  |  | 80 |  | 80% |
